We go through eight compounds from PubChem BioAssay AID1745844 (Carcinogenic Potency Database (CPDB), 2022).

The data set relates to rodent lifetime carcinogenesis bioassay, tumor incidence TD50. The data set is described as follows: chronic cancer bioassays in animals – CPDB, compiled studies (AID 1745844).

Calls of active or inactive are those of the source. How the calls were made is not given here.

Regarding `Cc1cn([C@H]2C[C@H](N=[N+]=[N-])[C@@H](CO)O2)c(=O)[nH]c1=O`, the TD50 by setting is: (mouse, strain B6C3F1, females, by gavage, site: any site (literature study), lesion: several types, types named in the paper, dosed 104 weeks, study length 104 weeks) 221 mg/kg/day; (mouse, strain B6C3F1, females, by gavage, site: liver, lesion: hepatocellular adenoma + hepatoblastoma + hepatocellular carcinoma, dosed 104 weeks, study length 104 weeks) 139 mg/kg/day; (mouse, strain B6C3F1, females, by gavage, site: lung, lesion: alveolar/bronchiolar adenoma + alveolar/bronchiolar carcinoma, dosed 104 weeks, study length 104 weeks) 510 mg/kg/day; (mouse, strain B6C3F1, females, by gavage, site: vagina, lesion: squamous-cell carcinoma + squamous-cell papilloma, dosed 104 weeks, study length 104 weeks) 209 mg/kg/day; (mouse, strain B6C3F1, females, by gavage, site: vagina, lesion: squamous-cell carcinoma, dosed 104 weeks, study length 104 weeks) 246 mg/kg/day; (mouse, strain B6C3F1, males, by gavage, site: Harderian gland, lesion: adenoma + carcinoma, dosed 104 weeks, study length 104 weeks) 458 mg/kg/day. For the same compound, the TD50 is 425 mg/kg/day (mouse, strain B6C3F1, males, by gavage, site: Harderian gland, lesion: adenoma, dosed 104 weeks, study length 104 weeks); 929 mg/kg/day (mouse, strain B6C3F1, males, by gavage, site: kidney, lesion: tubule adenoma + tubule carcinoma, dosed 104 weeks, study length 104 weeks); 1250 mg/kg/day (mouse, strain B6C3F1, males, by gavage, site: kidney, lesion: tubule adenoma, dosed 104 weeks, study length 104 weeks); 131 mg/kg/day (mouse, strain Charles River CD1, females, by gavage, site: any site (literature study), lesion: several types, types named in the paper, dosed 95 weeks, study length 95 weeks); 508 mg/kg/day (mouse, strain Charles River CD1, females, by gavage, site: vagina, lesion: several types, types named in the paper, dosed 95 weeks, study length 95 weeks); 715 mg/kg/day (mouse, strain Charles River CD1, females, by gavage, site: vagina, lesion: squamous-cell carcinoma, dosed 95 weeks, study length 95 weeks). The TD50 (rat, strain Charles River CD (Sprague-Dawley), females, by gavage, site: vagina, lesion: squamous-cell carcinoma, dosed 95 weeks, study length 95 weeks) is 11600 mg/kg/day. Moreover, the carcinogen call (mouse, strain Charles River CD1, males, by gavage, site: any site (literature study), lesion: several types, types named in the paper, dosed 82 weeks, study length 82 weeks) was “negative (inactive)” and the carcinogen call (rat, strain Charles River CD (Sprague-Dawley), males, by gavage, site: any site (literature study), lesion: several types, types named in the paper, dosed 103 weeks, study length 103 weeks) is “negative (inactive)”.

Turning to `NNc1nc(-c2ccc(N)cc2)cs1`, the TD50 was 11.3 mg/kg/day (mouse, strain Swiss, females, in feed, site: all sites, lesion: lymphocytic leukemia, dosed 46 weeks, study length 66 weeks); 11.3 mg/kg/day (mouse, strain Swiss, females, in feed, site: any site (literature study), lesion: several types, types named in the paper, dosed 46 weeks, study length 66 weeks); 7.09 mg/kg/day (rat, strain Sprague-Dawley, females, in feed, site: all sites, lesion: lymphoblastic lymphoma, dosed 46 weeks, study length 75 weeks); 0.582 mg/kg/day (rat, strain Sprague-Dawley, females, in feed, site: any site (literature study), lesion: several types, types named in the paper, dosed 46 weeks, study length 75 weeks); 1.02 mg/kg/day (rat, strain Sprague-Dawley, females, in feed, site: mammary gland, lesion: adenocarcinoma, dosed 46 weeks, study length 75 weeks); 1.03 mg/kg/day (rat, strain Sprague-Dawley, females, in feed, site: mammary gland, lesion: several types, types named in the paper, dosed 46 weeks, study length 75 weeks).

As to `Cc1ccc(-c2cc(C(F)(F)F)nn2-c2ccc(S(N)(=O)=O)cc2)cc1`, the carcinogen call (rat, strain Fischer 344, males, in feed, site: colon, lesion: one or several types, types not named, dosed 53 weeks, study length 53 weeks) is “negative (inactive)”.

Take `C=C(F)F`: the TD50 runs as follows: (rat, strain Sprague-Dawley, females, by gavage, site: fat, lesion: lipoma, dosed 52 weeks, study length 141 weeks) 60.3 mg/kg/day; (rat, strain Sprague-Dawley, females, by gavage, site: fat, lesion: liposarcoma, dosed 52 weeks, study length 141 weeks) 122 mg/kg/day; (rat, strain Sprague-Dawley, males, by gavage, site: fat, lesion: liposarcoma, dosed 52 weeks, study length 141 weeks) 38.8 mg/kg/day.

For the compound `Nc1cc([N+](=O)[O-])ccc1C(=O)O`, the carcinogen call is, setting by setting: (mouse, strain B6C3F1, females, in feed, site: any site (literature study), lesion: several types, types named in the paper, dosed 78 weeks, study length 93 weeks) “negative (inactive)”; (rat, strain Fischer 344, females, in feed, site: any site (literature study), lesion: several types, types named in the paper, dosed 78 weeks, study length 105 weeks) “negative (inactive)”; (rat, strain Fischer 344, males, in feed, site: any site (literature study), lesion: several types, types named in the paper, dosed 78 weeks, study length 105 weeks) “negative (inactive)”. Further, the TD50 is 2560 mg/kg/day (mouse, strain B6C3F1, females, in feed, site: lung, lesion: alveolar/bronchiolar adenoma + alveolar/bronchiolar carcinoma, dosed 78 weeks, study length 93 weeks); 12600 mg/kg/day (inactive) (mouse, strain B6C3F1, males, in feed, site: all sites, lesion: hemangioma + hemangiosarcoma, dosed 78 weeks, study length 93 weeks); 1660 mg/kg/day (mouse, strain B6C3F1, males, in feed, site: any site (literature study), lesion: several types, types named in the paper, dosed 78 weeks, study length 93 weeks); 11800 mg/kg/day (rat, strain Fischer 344, females, in feed, site: liver, lesion: hepatocellular adenoma + hepatocellular carcinoma + neoplastic nodule, dosed 78 weeks, study length 105 weeks); 3710 mg/kg/day (rat, strain Fischer 344, males, in feed, site: liver, lesion: hepatocellular adenoma + hepatocellular carcinoma + neoplastic nodule, dosed 78 weeks, study length 105 weeks).

`CC(C)O`: the carcinogen call was “negative (inactive)” (mouse, strain Charles River CD1, females, inhaled, site: kidney, lesion: one or several types, types not named, dosed 54 weeks, study length 54 weeks); “negative (inactive)” (mouse, strain Charles River CD1, females, inhaled, site: kidney, lesion: one or several types, types not named, dosed 78 weeks, study length 78 weeks); “negative (inactive)” (mouse, strain Charles River CD1, males, inhaled, site: kidney, lesion: one or several types, types not named, dosed 54 weeks, study length 54 weeks); “negative (inactive)” (mouse, strain Charles River CD1, males, inhaled, site: kidney, lesion: one or several types, types not named, dosed 78 weeks, study length 78 weeks); “negative (inactive)” (rat, strain Fischer 344, females, inhaled, site: kidney, lesion: one or several types, types not named, dosed 72 weeks, study length 73 weeks); “negative (inactive)” (rat, strain Fischer 344, females, inhaled, site: kidney, lesion: one or several types, types not named, dosed 104 weeks, study length 104 weeks). Also, the carcinogen call is “negative (inactive)” (rat, strain Fischer 344, males, inhaled, site: kidney, lesion: one or several types, types not named, dosed 72 weeks, study length 73 weeks) and “negative (inactive)” (rat, strain Fischer 344, males, inhaled, site: kidney, lesion: one or several types, types not named, dosed 102 weeks, study length 104 weeks). In addition, the TD50 (rat, strain Fischer 344, males, inhaled, site: testis, lesion: interstitial-cell adenoma, dosed 72 weeks, study length 73 weeks) is 456 mg/kg/day (inactive) and the TD50 (rat, strain Fischer 344, males, inhaled, site: testis, lesion: interstitial-cell adenoma, dosed 102 weeks, study length 104 weeks) is 46.4 mg/kg/day (inactive).

For `O=C(CCl)c1ccccc1`, the TD50 (mouse, strain B6C3F1, females, inhaled, site: any site (literature study), lesion: several types, types named in the paper, dosed 103 weeks, study length 105 weeks) is 4.31 mg/kg/day (inactive); the TD50 (mouse, strain B6C3F1, females, inhaled, site: lung, lesion: alveolar/bronchiolar adenoma + alveolar/bronchiolar carcinoma, dosed 103 weeks, study length 105 weeks) was determined as 33.4 mg/kg/day; the TD50 (mouse, strain B6C3F1, males, inhaled, site: any site (literature study), lesion: several types, types named in the paper, dosed 103 weeks, study length 106 weeks) was 2.69 mg/kg/day (inactive); the TD50 (mouse, strain B6C3F1, males, inhaled, site: liver, lesion: hepatocellular adenoma + hepatocellular carcinoma + neoplastic nodule, dosed 103 weeks, study length 106 weeks) amounted to 5.24 mg/kg/day; the TD50 (mouse, strain B6C3F1, males, inhaled, site: lung, lesion: alveolar/bronchiolar adenoma + alveolar/bronchiolar carcinoma, dosed 103 weeks, study length 106 weeks) is 10.4 mg/kg/day; the TD50 (rat, strain Fischer 344, females, inhaled, site: any site (literature study), lesion: several types, types named in the paper, dosed 103 weeks, study length 105 weeks) was found to be 0.859 mg/kg/day. Besides, the TD50 worked out at 0.224 mg/kg/day (rat, strain Fischer 344, females, inhaled, site: mammary gland, lesion: adenocarcinoma + adenoma + fibroadenoma, dosed 103 weeks, study length 105 weeks); 0.208 mg/kg/day (rat, strain Fischer 344, females, inhaled, site: mammary gland, lesion: adenoma + fibroadenoma, dosed 103 weeks, study length 105 weeks); 0.211 mg/kg/day (rat, strain Fischer 344, females, inhaled, site: mammary gland, lesion: fibroadenoma, dosed 103 weeks, study length 105 weeks). Where the note is “rat, strain Fischer 344, males, inhaled, site: any site (literature study), lesion: several types, types named in the paper, dosed 103 weeks, study length 105 weeks”, the carcinogen call is “negative (inactive)”.

Consider `OCCOCCO`, for which the carcinogen call is “negative (inactive)” (rat, strain F344/DuCrj, females, in drinking water, site: any site (literature study), lesion: several types, types named in the paper, dosed 108 weeks, study length 108 weeks); “negative (inactive)” (rat, strain F344/DuCrj, females, in drinking water, site: liver, lesion: neoplastic nodule, dosed 108 weeks, study length 108 weeks); “negative (inactive)” (rat, strain F344/DuCrj, males, in drinking water, site: any site (literature study), lesion: several types, types named in the paper, dosed 108 weeks, study length 108 weeks). Moreover, the TD50 is, setting by setting: (rat, strain F344/DuCrj, males, in drinking water, site: liver, lesion: neoplastic nodule, dosed 108 weeks, study length 108 weeks) 34200 mg/kg/day (inactive); (rat, strain Osborne-Mendel, males, in feed, site: urinary bladder, lesion: several types, types named in the paper, dosed 104 weeks, study length 104 weeks) 1660 mg/kg/day.

Broadly, the TD50 is the dose at which the toxic effect under study appears in half of the subjects.
